ChEMBL document CHEMBL1201862, “PubChem BioAssay data set” (2004)
Activity calls are given as the source filed them.

Experiments:
[1] = biological target: Heat shock protein HSP 90-alpha (Homo sapiens, UniProt P07900); format: functional, organism-based
Paired box protein Pax-8 = Paired box protein Pax-8 (Homo sapiens, UniProt Q06710); assay: inhibitors of PAX8-driven TPO luciferase reporter, dose response, RMG-I cells, cherry-pick (AID 687027); format: functional, cell-based;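 further: luciferase reporter driven by Pax8 target thyroperoxidase promoter measured by SteadyGlo luminescence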
Sequence of Paired box protein Pax-8 (Q06710 whole entry): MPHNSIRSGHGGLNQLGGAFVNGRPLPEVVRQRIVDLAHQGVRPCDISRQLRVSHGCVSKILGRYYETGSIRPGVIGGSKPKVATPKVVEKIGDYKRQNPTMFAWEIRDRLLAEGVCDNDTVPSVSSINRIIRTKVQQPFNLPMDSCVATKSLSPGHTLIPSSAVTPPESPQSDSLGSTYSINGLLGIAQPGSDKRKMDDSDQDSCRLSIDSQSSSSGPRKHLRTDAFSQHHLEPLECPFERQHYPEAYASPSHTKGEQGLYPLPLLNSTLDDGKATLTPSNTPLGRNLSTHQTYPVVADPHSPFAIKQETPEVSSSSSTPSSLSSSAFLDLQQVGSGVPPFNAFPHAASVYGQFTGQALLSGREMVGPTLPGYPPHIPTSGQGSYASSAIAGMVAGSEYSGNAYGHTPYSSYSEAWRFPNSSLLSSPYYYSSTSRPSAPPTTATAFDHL

[2] = IGROV1 ovarian cancer cell cytotoxicity, dose response, PAX8 inhibitor project, plate reader, dry powder samples (AID 743043); format: functional, cell-based; conditions: IGROV-1
[3] = Luminescence Cell-Based Dose Confirmation HTS to Identify Activators of 5'UTR Stem-Loop Driven Alpha-Synuclein mRNA Translation in H4 Neuroglioblastoma Cells. [Related pubchem assays: 1829 (Project Summary), 1814 (Primary HTS)]; format: functional
[4] = Luminescence Cell-Based Dose Response HTS to Identify Activators of Luciferase Translation or Activity in H4 […] Cells. [Related pubchem assays: 1829 (Project Summary), 1814 (Primary HTS)]; format: functional
H4 = assay: Luminescence Cell-Based Dose Response HTS to Identify Activators of 5'UTR Stem-Loop Driven Prion Protein mRNA Translation in H4 Neuroglioblastoma Cells. [Related pubchem assays: 1829 (Project Summary), 1814 (Primary HTS)]; format: functional; conditions: Homo sapiens
Nonstructural protein 1 = Nonstructural protein 1 (Influenza A virus, UniProt Q194T2); format: functional, Influenza A virus (A/California/07/2009(H1N1))
Sequence of Nonstructural protein 1 (Q194T2 whole entry): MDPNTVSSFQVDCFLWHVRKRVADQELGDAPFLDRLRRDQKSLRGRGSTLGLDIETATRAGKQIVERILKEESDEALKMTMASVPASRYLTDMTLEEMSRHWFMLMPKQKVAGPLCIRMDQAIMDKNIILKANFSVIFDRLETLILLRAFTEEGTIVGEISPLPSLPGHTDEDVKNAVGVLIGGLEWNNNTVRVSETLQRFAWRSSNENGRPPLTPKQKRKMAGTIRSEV

[5] = biological target: T1, Microphthalmia-associated transcription factor (Homo sapiens, UniProt O75030); assay: TRPM1 promoter luciferase signal decrease, dose response, MITF inhibitor project, cell-based, SK-MEL-5, cherry-picked, set 3 (AID 493073); format: functional
T1 sequence (O75030 whole entry): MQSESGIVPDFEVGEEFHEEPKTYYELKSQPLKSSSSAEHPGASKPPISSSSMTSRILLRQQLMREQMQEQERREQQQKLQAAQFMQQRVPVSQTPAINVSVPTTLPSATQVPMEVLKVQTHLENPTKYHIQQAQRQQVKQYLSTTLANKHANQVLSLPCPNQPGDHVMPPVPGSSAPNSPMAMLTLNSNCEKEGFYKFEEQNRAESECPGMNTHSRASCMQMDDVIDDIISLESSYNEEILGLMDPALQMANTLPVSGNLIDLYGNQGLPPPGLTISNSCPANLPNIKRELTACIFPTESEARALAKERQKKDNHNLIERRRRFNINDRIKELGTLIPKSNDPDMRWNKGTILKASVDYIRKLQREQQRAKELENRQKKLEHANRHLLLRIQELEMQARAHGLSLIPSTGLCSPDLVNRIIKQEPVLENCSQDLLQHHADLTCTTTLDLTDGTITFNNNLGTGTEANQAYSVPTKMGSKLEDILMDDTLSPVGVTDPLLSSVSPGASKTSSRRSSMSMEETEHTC

INS1 = assay: beta cell apoptosis inhibitors, cytokine rescue, dose response, luminescence, retest (AID 449756); format: functional, cell-based; conditions: Rattus norvegicus;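 further: cell death triggered by IL-1 beta plus TNF-alpha plus IFN-gamma mixture; protective hits raise ATP signal compared with cytokine alone wells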
Large T antigen = Large T antigen (Simian virus 40, UniProt P03070); format: functional, Betapolyomavirus macacae;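 further: Confirmatory-stage PubChem screen for compounds that inhibit SV40 T antigen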
Sequence of Large T antigen (P03070 whole entry): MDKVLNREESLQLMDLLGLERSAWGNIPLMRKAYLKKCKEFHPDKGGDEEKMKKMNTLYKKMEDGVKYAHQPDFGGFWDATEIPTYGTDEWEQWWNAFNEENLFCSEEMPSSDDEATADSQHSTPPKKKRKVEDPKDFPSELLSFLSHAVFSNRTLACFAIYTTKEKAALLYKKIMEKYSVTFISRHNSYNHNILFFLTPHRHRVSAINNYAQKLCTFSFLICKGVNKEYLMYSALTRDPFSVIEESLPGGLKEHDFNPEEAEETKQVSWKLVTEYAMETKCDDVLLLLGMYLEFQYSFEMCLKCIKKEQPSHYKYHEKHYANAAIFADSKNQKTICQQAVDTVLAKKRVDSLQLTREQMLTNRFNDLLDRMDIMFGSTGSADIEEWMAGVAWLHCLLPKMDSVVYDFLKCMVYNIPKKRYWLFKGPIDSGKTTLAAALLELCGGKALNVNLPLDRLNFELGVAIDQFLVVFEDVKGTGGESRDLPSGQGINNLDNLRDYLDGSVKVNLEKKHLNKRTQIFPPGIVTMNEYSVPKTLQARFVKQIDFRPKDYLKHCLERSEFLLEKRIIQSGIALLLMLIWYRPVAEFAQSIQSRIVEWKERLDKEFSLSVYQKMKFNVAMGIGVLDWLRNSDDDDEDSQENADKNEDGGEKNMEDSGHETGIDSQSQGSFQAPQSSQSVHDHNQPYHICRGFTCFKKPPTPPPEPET

Estrogen receptor beta = Estrogen receptor beta (Homo sapiens, UniProt Q92731);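 further: recombinant ER-beta bound to coactivator SRC1 peptide in presence of estradiol agonist; inhibitors block coactivator peptide binding and lower the FRET signal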
Sequence of Estrogen receptor beta (Q92731 whole entry): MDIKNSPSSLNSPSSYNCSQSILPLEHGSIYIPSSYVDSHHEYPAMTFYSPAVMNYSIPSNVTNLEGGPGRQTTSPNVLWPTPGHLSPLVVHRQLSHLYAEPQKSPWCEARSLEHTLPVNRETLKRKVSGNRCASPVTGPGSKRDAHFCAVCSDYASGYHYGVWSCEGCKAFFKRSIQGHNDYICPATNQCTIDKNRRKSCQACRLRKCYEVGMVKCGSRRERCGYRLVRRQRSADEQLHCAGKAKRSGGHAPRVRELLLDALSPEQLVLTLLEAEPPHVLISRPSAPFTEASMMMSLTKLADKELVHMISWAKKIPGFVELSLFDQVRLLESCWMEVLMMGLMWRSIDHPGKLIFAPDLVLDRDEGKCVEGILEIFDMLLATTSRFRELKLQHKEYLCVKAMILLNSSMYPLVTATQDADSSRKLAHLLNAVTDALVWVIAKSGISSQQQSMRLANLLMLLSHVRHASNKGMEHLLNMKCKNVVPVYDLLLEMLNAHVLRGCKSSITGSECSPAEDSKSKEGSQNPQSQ

[6] = human group III sPLA2 inhibitors, dose response, biochemical, QFRET, IC50 (AID 743457);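 further: green fluorescence rise as the enzyme cleaves BODIPY PC-A2 in liposomes; potency for inhibition of the enzyme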
[7] = intracellular Trypanosoma cruzi inhibitors in host cells – cell-based, plate reader, cherry-pick samples, set 3, dose response (AID 651818); format: functional;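 further: compounds incubated with infected cells for about four days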
[8] = microbe, parasite or virus in culture; format: functional; conditions: Mycobacterium tuberculosis
[9] = Luminescence Cell-Based Dose Retest to Confirm Inhibitors of Cancer Stem Cells. [Related pubchem assays (depositor defined):AID2717, AID2721]; format: functional; conditions: Homo sapiens
[10] = biological target: T2, DNA repair protein RAD52 homolog (Homo sapiens, UniProt P43351); format: functional, biochemical
T2 sequence (P43351 whole entry): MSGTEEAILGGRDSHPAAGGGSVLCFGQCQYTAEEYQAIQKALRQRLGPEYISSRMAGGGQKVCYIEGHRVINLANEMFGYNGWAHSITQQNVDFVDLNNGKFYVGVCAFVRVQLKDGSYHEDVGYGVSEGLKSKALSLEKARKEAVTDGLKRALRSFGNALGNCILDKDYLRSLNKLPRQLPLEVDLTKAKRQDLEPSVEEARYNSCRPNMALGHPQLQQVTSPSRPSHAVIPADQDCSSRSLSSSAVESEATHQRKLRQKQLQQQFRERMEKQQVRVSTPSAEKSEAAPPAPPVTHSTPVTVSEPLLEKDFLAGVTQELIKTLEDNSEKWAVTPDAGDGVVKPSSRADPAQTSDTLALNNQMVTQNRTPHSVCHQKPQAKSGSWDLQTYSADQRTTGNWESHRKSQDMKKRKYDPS

[11] = biological target: T3, Heat shock factor protein 1 (Mus musculus, UniProt P38532); assay: HSF1 potentiators in luciferase reporter cells, confirmation, cell-based, NIH3T3, luminescence, dose retest (AID 435004); format: functional;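 further: stress induced by proteasome inhibitor MG132 added 30 min after compound; luciferase reporter driven by HSF1 response element in NIH3T3 cells; actives raise luminescence as potentiators of the MG132 stress response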
T3 sequence (P38532 whole entry): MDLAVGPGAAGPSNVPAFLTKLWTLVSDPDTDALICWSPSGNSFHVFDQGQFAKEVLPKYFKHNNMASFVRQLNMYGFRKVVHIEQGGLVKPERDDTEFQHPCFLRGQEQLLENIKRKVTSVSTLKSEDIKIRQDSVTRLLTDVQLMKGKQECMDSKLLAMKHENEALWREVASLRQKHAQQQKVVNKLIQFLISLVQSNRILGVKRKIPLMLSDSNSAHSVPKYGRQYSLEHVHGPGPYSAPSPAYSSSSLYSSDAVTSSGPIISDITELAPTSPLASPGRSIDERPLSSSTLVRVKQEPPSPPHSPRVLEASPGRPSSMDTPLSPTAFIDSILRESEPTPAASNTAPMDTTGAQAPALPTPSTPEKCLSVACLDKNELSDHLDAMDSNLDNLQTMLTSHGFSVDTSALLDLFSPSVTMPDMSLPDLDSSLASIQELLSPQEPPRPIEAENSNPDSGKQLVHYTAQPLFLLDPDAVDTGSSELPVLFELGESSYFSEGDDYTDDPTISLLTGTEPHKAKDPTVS

[12] = biological target: T4, Replicative DNA helicase DnaB (Mycobacterium tuberculosis, UniProt P9WMR3); assay: DnaB intein splicing inhibitors, dose response, biochemical, cell-free fluorescence (AID 449749); format: functional
T4 sequence (P9WMR3 whole entry): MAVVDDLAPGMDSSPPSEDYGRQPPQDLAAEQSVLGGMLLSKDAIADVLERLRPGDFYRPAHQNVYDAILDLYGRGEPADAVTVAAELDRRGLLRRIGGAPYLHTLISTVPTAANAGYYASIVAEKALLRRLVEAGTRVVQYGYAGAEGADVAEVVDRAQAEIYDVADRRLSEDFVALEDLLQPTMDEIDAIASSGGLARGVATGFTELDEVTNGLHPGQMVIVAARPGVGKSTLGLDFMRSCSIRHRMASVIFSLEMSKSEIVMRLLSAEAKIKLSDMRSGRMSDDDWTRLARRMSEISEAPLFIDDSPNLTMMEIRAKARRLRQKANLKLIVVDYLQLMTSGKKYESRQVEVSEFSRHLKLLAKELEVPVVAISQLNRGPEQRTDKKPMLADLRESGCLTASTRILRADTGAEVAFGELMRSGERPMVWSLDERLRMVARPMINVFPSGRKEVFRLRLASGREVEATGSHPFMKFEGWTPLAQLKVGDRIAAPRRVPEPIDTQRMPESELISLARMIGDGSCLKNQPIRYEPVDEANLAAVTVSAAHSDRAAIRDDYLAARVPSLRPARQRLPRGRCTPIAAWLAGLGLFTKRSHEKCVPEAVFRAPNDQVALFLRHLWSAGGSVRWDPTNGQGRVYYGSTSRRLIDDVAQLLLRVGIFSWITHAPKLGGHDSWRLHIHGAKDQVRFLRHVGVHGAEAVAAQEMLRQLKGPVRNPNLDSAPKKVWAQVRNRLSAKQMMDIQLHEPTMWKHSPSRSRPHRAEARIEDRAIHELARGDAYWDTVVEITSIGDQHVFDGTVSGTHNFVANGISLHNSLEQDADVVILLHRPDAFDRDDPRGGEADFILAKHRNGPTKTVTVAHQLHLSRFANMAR

Protein RecA = biological target: T5, Protein RecA (Mycobacterium tuberculosis, UniProt P9WHJ3); assay: Fluorescence Cell-Free Homogeneous Dose Retest to Identify Inhibitors of RecA-Intein Splicing Activity. [Related pubchem assays (depositor defined):AID2097, AID2223, AID489010, AID492950]; format: functional
T5 sequence (P9WHJ3 whole entry): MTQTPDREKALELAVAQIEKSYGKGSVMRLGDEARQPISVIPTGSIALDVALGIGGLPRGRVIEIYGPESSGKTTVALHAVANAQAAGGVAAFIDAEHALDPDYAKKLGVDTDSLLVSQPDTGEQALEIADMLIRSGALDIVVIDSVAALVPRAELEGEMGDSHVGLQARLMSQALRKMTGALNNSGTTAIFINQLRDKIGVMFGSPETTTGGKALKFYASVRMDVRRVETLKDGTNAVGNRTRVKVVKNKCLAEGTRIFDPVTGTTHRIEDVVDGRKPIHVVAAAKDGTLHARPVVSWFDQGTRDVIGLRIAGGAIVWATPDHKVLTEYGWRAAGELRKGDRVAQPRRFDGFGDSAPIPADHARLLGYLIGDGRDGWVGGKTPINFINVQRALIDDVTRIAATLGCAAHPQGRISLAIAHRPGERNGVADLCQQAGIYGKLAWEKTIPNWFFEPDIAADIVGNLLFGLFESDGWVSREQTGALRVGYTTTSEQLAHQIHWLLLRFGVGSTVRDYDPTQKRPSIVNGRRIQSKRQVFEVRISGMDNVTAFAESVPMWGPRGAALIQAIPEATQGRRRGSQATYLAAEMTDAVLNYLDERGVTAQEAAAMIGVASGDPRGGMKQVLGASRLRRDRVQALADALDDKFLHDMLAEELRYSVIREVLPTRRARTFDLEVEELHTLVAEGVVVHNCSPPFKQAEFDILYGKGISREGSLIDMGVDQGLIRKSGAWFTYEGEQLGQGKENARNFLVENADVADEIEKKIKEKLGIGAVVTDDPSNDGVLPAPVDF

Cc1sc2nc(C3CC3)nc(SCC(=O)NCc3ccco3)c2c1C
AC50 [1]: 5.75 µM (active)

C[C@@H]1CN([C@H](C)CO)C(=O)c2cc(NC(=O)Nc3ccc(F)cc3)ccc2O[C@@H](C)CCCCO[C@H]1CN(C)C(=O)C1CCCCC1
AC50 (Paired box protein Pax-8): 5.55 µM (active) | AC50 [2]: 50.3 µM (active)

O=C1CC(c2ccccc2)=NN1c1nc(-c2ccccc2)cs1
EC50 [3]: 13.2 µM (active) | EC50 [4]: 11.4 µM (active) | EC50 (H4): > 120 µM (not active) | AC50 [1]: 3.34 µM (active)

CN(C)C1CCN(Cc2cc(COCc3ccccc3)c3cccnc3c2O)C1 (stereo unspecified)
IC50 (Nonstructural protein 1): 5.98 µM (active) | AC50 [5]: 9.99 µM (active) | AC50 (INS1): 2.78 µM (active)

N#Cc1c(N/C=C2\C(=O)NC(=O)N(Cc3ccco3)C2=O)sc2c1CCCC2
IC50 (Large T antigen): 32.6 µM (active) | IC50 (Estrogen receptor beta): > 50 µM (not active)

CCCn1c(N=C(S)Nc2ccccc2)nc2ccccc21
IC50 [6]: 112 µM (inactive)

Cc1ccccc1-c1ccc([C@@H]2[C@@H](CO)N3CCCCN(C(=O)NC4CCCC4)C[C@H]23)cc1
AC50 (Paired box protein Pax-8): 21.6 µM (active) | AC50 [2]: 52.2 µM (active)

Cc1ccc(S(=O)(=O)Nc2ccc3c(c2)C(=O)N([C@H](C)CO)C[C@H](C)[C@H](CN(C)Cc2ccc(C(=O)Nc4ccccc4N)cc2)OCCCC[C@@H](C)O3)cc1
AC50 [7]: 2.44 µM (active)

Nc1cccc(Nc2nc(OC(C(F)(F)F)C(F)(F)F)nc(OC(C(F)(F)F)C(F)(F)F)n2)c1
IC50 [6]: > 122 µM (inactive)

CC(NC(=O)c1ccc(Br)cc1)c1ccc2c(c1)CCCC2 (stereo unspecified)
AC50 [1]: 2.75 µM (active)

Cc1ccc(NC(S)=NNC(=O)c2nnn(-c3ccccc3)c2C)cc1
IC50 [6]: > 122 µM (inactive)

CCCCNc1c(-c2ccc(SC3CCCCC3)c(OC)c2)nc2ccc(C)cn12
CC50 [8]: > 40 µM (active) | AC50 [9]: 3.1 µM (active)

Cc1ccc(S(=O)(=O)Nc2cccc3c2O[C@@H](CN(C)Cc2ccc(-c4ccccc4)cc2)[C@@H](C)CN([C@H](C)CO)C3=O)cc1
AC50 [7]: 3.16 µM (active)

COc1ccc(S(=O)(=O)Nc2ccc3c(c2)C(=O)N([C@H](C)CO)C[C@H](C)[C@H](CN(C)C(=O)Nc2ccc(C(F)(F)F)cc2)OCCCC[C@@H](C)O3)cc1
AC50 [7]: 2.64 µM (active)

COc1ccc2c(c1)c[n+](C)c1c3cc(OC)c(OC)cc3ccc21
AC50 [10]: 0.558 µM (active) | IC50 [6]: > 122 µM (inactive)

C[C@@H]1CN([C@H](C)CO)C(=O)c2cccc(NC(=O)NC3CCCCC3)c2O[C@@H]1CN(C)Cc1ccc(-c2ccccc2)cc1
AC50 [7]: 3.37 µM (active)

CCOC(=O)C(=NC(C)CC)NNc1cccc(C(F)(F)F)c1 (stereo unspecified)
IC50 [6]: > 122 µM (inactive)

Cc1c(C#N)c(NC(=O)CCl)n(Cc2ccccc2)c1C
EC50 [11]: > 260 µM (inactive) | AC50 [5]: 11.2 µM (active) | AC50 [12]: 21.5 µM (active) | EC50 (Protein RecA): 3.39 µM (active)

Cc1cccc(-n2c(SCCC(=O)O)nnc2-c2cccs2)c1C
IC50 (Estrogen receptor beta): > 50 µM (not active)

Cc1ccc(S(=O)(=O)Nc2cccc3c2O[C@@H](CN(C)Cc2ccc(C(=O)Nc4ccccc4N)cc2)[C@H](C)CN([C@@H](C)CO)C3=O)cc1
AC50 [7]: 3.2 µM (active)

CSC(=S)NN=C(C)c1cccc(C)n1
IC50 (Nonstructural protein 1): 1.1 µM (active) | AC50 [1]: 23.7 µM (active)

C[C@H]1CN([C@@H](C)CO)C(=O)Cc2cc(NS(=O)(=O)c3ccc(F)cc3)ccc2O[C@@H]1CN(C)Cc1ccc(C(F)(F)F)cc1
AC50 [7]: 4.8 µM (active)
